Results taken from patent publication US10919841B2, “Monoamine reuptake inhibitors” (Research Triangle Institute, priority 2009, dated 2021).
Like-named read-outs stand apart in the source and are kept apart here.

What was measured:
[1] = tested on: rats; experiment: cocaine discrimination time-course study, oral administration; settings: for ED50: Rattus norvegicus, po, 0.75 h; for generalization to cocaine: p.o., 50 mg/kg
[2] = tested on: mice; experiment: locomotor activity, 8-h time course protocol; type: in vivo; settings: for ED50 / Emax: Mus musculus; for ED50: read-out: Locomotor Activity 8-Hour ED50; for Emax: read-out: Locomotor Activity 8-Hour % Peak Cocaine, percent of cocaine's maximal effect, 30 min period of maximum stimulation; for Locomotor Activity 8-Hour Time, min Period, length: duration of locomotor activity; for Locomotor Activity 8-Hour Time, min Period, max: time period of maximum effect; for locomotor stimulant activity across the 1-h and 8-h protocols, in words: 1-h and 8-h tests compared
[3] = target: T1, (h)DAT (Homo sapiens, UniProt Q01959); experiment: block of [3H]dopamine reuptake in HEK-(h)DAT cells; type: cell-based
T1 construct: expressed in transfected cells
T1 sequence (Q01959 whole entry): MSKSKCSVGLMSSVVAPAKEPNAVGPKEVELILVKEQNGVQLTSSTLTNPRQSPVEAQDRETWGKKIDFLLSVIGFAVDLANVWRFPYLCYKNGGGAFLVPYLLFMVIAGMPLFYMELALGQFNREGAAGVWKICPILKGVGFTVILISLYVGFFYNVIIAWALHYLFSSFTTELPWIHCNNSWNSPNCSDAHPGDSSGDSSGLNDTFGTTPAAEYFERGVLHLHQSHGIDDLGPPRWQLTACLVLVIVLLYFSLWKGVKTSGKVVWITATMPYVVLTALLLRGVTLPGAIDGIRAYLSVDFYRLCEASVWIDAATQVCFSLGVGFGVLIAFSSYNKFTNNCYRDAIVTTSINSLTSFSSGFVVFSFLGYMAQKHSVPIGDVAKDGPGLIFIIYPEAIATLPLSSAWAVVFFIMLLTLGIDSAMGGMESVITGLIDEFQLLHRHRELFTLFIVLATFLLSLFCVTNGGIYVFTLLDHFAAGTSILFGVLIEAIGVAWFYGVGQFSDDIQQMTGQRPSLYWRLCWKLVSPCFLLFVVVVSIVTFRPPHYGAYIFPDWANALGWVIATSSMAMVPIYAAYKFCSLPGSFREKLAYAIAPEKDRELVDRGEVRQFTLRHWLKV

[4] = tested on: rats; experiment: cocaine discrimination (2-lever operant), i.p. administration; settings: for responders at 5 mg/kg / responders at 10 mg/kg / responders at 25 mg/kg / ED50 / responders at 50 mg/kg: Rattus norvegicus, ip; for responders at 5 mg/kg / responders at 10 mg/kg / responders at 25 mg/kg / responders at 50 mg/kg: read-out: % cocaine lever responding
[5] = target: T2, (h)NET (Homo sapiens, UniProt P23975); experiment: competition binding with [125I]RTI-55 at (h)NET stably expressed in HEK293 cells; settings: read-out: Binding, Ki NET; mean ± standard error of three independent experiments
T2 sequence (P23975 whole entry): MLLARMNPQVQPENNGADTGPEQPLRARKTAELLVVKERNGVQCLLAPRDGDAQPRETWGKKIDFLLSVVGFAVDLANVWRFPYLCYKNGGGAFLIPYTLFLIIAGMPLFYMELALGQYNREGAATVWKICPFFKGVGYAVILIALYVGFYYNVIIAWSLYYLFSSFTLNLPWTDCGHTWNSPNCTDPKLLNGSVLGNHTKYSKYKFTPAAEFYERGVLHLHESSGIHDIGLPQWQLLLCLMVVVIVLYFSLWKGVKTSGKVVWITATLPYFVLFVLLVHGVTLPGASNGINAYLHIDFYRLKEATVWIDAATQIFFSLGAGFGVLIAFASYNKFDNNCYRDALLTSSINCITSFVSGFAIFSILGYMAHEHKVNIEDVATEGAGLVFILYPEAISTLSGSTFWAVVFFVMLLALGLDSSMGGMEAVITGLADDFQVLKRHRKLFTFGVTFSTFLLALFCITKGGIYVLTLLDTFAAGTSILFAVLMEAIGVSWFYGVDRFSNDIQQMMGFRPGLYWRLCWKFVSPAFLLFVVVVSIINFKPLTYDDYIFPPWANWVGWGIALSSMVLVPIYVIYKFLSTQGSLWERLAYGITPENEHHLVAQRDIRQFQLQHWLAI

[6] = target: T1, (h)DAT; experiment: competition binding with [125I]RTI-55 at (h)DAT stably expressed in HEK293 cells; settings: mean ± standard error of three independent experiments
[7] = tested on: mice; experiment: locomotor activity, 1-h observation protocol; type: in vivo; settings: Mus musculus; for Emax: 0.5 h, read-out: Locomotor Activity 1-Hour % Peak Cocaine; for ED50: dose to produce 50% of the compound's maximal effect, 1-h
[8] = target: T2, (h)NET; experiment: block of [3H]norepinephrine reuptake in HEK-(h)NET cells; settings: read-out: Uptake, IC50 [3H]NE; mean ± standard error of three independent experiments
[9] = dose to produce 50% of the compound's maximal effect, 8-h
[10] = mean ± standard error of three independent experiments, read-out: Uptake, IC50 [3H]DA
[11] = read-out: Full Generalization ED50
[12] = [3H]DA, read-out: IC50 for DA uptake inhibition

SMILES | ED50 [1] [mg/kg] | Emax [2] [%] | Locomotor Activity 8-Hour Time, min Period, length [2] [min] | Locomotor Activity 8-Hour Time, min Period, max [2] [min] | responders at 5 mg/kg [4] [%] | responders at 10 mg/kg [4] [%] | responders at 25 mg/kg [4] [%] | locomotor stimulant activity across the 1-h and 8-h protocols, in words [2] | ED50 [2, 9] [mg/kg] | IC50 [3, 10] [µM] | Ki [5] [µM] | Ki [6] [µM] | ED50 [4, 11] [mg/kg] | Emax [7] [%] | ED50 [7] [mg/kg] | IC50 [8] [µM] | other results
CC(NC(C)(C)C)C(=O)c1cccc(Cl)c1 (racemic) [Compound 2a, (±)-2-tert-butylamino-3′-chloropropiophenone, reference compound] | 23.2 | > 84 | 130 to 270 | 0 to 30 | 0 | 67 | 66 | – | – | – | – | – | – | – | – | – | ED50 ([1]; read-out: ED50 for drug-appropriate responding): 23.2 mg/kg; generalization to cocaine ([1]; 45 min): full generalization; generalization to cocaine ([1]; 90 min): partial generalization; ED50 ([2]; 8 h): 6.5 mg/kg; times less potent inhibitor of DA uptake than cocaine ([3]; relative to cocaine): 3.5 times; generalization to the cocaine cue, in words ([4]; i.p.): substituted only partially; cocaine-appropriate responding ([4]; i.p., 10 mg/kg): 67%; response rate, in words ([4]; i.p., dose range given in the value): increased relative to vehicle control following 5-25 mg/kg
CC(NC(C)(C)C)C(=O)c1ccccc1 (centres unmarked) [Compound 2b, 2-(N-tert-Butylamino)propiophenone] | 25.6 | 98 | – | 0 to 30 | 3 | 83 | 83 | strong stimulants in both studies | 10.5 | 2.31 | 5.7 | 5.73 | 5.65 | 120 | 8.1 | 8.7 | –
CC(NC(C)(C)C)C(=O)c1cccc(F)c1 (centres unmarked) [Compound 2c, 2-(tert-Butylamino)-3′-fluoropropiophenone] | 27.1 | 90 | 150 | 0 to 30 | 1 | 0 | 50 | strong stimulants in both studies | 16.6 | 1.46 | – | 4.51 | 10.8 | 84 | 16.1 | – | responders at 50 mg/kg [4]: 10%
CC(C(=O)c1cccc(Cl)c1)N(C)C(C)(C)C (centres unmarked) [Compound 2cc, 2-(N-Methyl-N-tert-butylamino)-3′-chloropropiophenone] | – | 67 | 200 to 340 | 80 to 110 | 0 | 49 | 50 | weak stimulants in both tests | 11.2 | 2.06 | – | 6.4 | – | 78 | 14.9 | – | –
CC(NC(C)(C)C)C(=O)c1cccc(Br)c1 (centres unmarked) [Compound 2d, 2-(N-tert-Butylamino)-3′-bromopropiophenone] | 52.4 | 57 | 120 | 0 to 30 | 1 | 27 | 83 | weak stimulants in both tests | 12.9 | – | – | 4.2 | 11.4 | 72 | 10.6 | 6.5 | IC50 [3, 12]: 0.95 µM
CC(C(=O)c1cccc(Cl)c1)N(C)C (centres unmarked) [Compound 2dd, 2-(N,N-Dimethylamino)-3′-chloropropiophenone] | 5.36 | 52 | 180 to 190 | 90 to 120 | 0 | 83 | 83 | activity similar to cocaine in the 1-h protocol but weakened significantly in the 8-h time-course study | 13.9 | – | 3.09 | 4.13 | 4.84 | 100 | 11 | 1.26 | IC50 [3, 12]: 1.53 µM; responders at 50 mg/kg [4]: 10%; ED50 ([4]; read-out: ED50 for cocaine generalization): 4.84 mg/kg
Cc1cccc(C(=O)C(C)NC(C)(C)C)c1 (centres unmarked) [Compound 2e, 2-(N-tert-Butylamino)-3′-methylpropiophenone] | – | – | – | – | – | – | – | – | – | – | – | – | – | 76 | 31 | – | –
CCN(CC)C(C)C(=O)c1cccc(Cl)c1 (centres unmarked) [Compound 2ee, 2-(N,N-Diethylamino)-3′-chloropropiophenone] | – | 90 | 130 to 240 | 20 to 50 | 1 | 66 | 82 | moderate activity in the 1-h test with increased activity in the time-course study | 20 | 1.74 | 4.48 | 2.21 | 5.88 | 55 | 16.6 | 4.6 | –
